Reference: patent publication US11234976B2, “Methods of using pyruvate kinase activators” (Agios Pharmaceuticals, Inc., priority 2015, dated 2022)
Read-outs that look alike come from different tables or passages of the source.

Tests used:
[1] = SAD study safety and tolerability; type: in vivo, human
Procedure: (§1) Key exclusion criteria included glucose 6-phosphate dehydrogenase deficiency, blood donation, blood loss of greater than 500 mL, or transfusion of blood or plasma within three months of screening.

[2] = MAD study safety and tolerability; conditions: doses between 360 and 700 not explored
Text: (§2) Adverse events (AEs), laboratory parameters, ECGs, and vital signs were monitored.

[3] = tested on: recombinantly expressed PKR mutant proteins; assay: Activation of recombinantly expressed PKR mutant proteins; type: biochemical
[4] = tested on: PK-R; assay: MAD study pharmacodynamics (blood 2,3-DPG and ATP)
[5] = MAD study pharmacokinetics in healthy subjects
[6] = in vivo
Text: as §2

[7] = tested on: PK-R
Procedure: as §1

[8] = tested on: PKR reaction; assay: PKR flux in whole blood from treated mice ([U-13C6]-glucose); type: in vivo, C57BL/6 mice; conditions: 100 mpk BID, 13 doses, oral gavage; kinetic flux model
Procedure: Whole blood was incubated with [U-^13C6]-glucose at 37° C. and the metabolite pool sizes and rate of ^13C label incorporation into glycolytic intermediates were assessed. The data were subsequently analyzed using a mathematical kinetic flux model to quantify the overall change in carbon flow through the PKR reaction.

[9] = Drug exposure in mice; type: in vivo, C57/BL6 mice; conditions: oral gavage, 1-150 mpk, single dose and multiple dose (13 doses, BID)
Text: Dose levels tested were 1 mpk, 10 mpk, 50 mpk, and 150 mpk. Following the last dose, mice were bled to evaluate drug exposure and pharmacodynamic markers including 2,3-DPG and ATP levels, and PKR activity. […]. […]

[10] = target: PKR (Mus musculus, UniProt P53657)
Chain of PKR (P53657 whole entry): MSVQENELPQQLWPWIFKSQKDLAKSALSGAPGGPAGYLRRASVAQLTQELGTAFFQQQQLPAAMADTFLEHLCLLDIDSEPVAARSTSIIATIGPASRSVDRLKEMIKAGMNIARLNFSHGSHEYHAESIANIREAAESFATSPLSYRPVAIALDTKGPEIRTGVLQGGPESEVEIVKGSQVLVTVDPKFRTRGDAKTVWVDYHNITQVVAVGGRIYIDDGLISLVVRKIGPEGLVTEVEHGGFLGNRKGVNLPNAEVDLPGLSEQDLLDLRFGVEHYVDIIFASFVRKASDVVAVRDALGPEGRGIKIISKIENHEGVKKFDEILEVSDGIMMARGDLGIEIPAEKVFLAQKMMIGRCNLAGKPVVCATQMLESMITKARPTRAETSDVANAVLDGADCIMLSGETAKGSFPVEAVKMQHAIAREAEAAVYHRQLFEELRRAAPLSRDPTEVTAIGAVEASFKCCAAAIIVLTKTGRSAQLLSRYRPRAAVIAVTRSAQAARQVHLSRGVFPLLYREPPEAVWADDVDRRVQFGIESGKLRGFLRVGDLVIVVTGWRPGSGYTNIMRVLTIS
Text: Dose levels tested were 1 mpk, 10 mpk, 50 mpk, and 150 mpk. Following the last dose, mice were bled to evaluate drug exposure and pharmacodynamic markers including 2,3-DPG and ATP levels, and PKR activity.

[11] = target: cytochrome P450 3A4 (CYP3A4) (Homo sapiens, UniProt P08684); assay: Pre-clinical CYP3A4 induction / metabolism; type: in vitro ADME
Chain of cytochrome P450 3A4 (CYP3A4) (P08684 whole entry): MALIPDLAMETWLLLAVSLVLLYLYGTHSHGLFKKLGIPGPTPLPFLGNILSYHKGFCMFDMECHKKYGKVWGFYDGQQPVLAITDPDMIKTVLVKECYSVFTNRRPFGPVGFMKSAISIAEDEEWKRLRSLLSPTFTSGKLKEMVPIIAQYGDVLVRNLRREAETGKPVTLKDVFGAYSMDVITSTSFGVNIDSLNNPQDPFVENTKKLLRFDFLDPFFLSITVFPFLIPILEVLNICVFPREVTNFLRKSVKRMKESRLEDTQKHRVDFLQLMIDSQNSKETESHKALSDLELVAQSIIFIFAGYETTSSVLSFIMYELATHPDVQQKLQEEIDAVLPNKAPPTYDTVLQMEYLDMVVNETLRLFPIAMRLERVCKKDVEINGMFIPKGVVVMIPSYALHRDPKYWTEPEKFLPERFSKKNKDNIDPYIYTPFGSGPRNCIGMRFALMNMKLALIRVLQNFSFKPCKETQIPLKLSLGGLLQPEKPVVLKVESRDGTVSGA

[12] = SAD study pharmacokinetics in healthy subjects; type: in vivo, human; conditions: for half-life: oral
Procedure: . Key exclusion criteria included glucose 6-phosphate dehydrogenase deficiency, blood donation, blood loss of greater than 500 mL, or transfusion of blood or plasma within three months of screening.

[13] = tested on: PKD red cells; assay: Ex-vivo treatment of PKD red cells; type: cell-based, human; conditions: PKD red cells treated ex-vivo
[14] = single oral dose, 1, 10, 50, 150 mpk

## O=C(c1ccc(NS(=O)(=O)c2cccc3cccnc23)cc1)N1CCN(CC2CC2)CC1 [Compound 1, N-(4-(4-(cyclopropylmethyl)piperazine-1-carbonyl)phenyl)quinoline-8-sulfonamide]
[1]; SAD and 2 completed MAD cohorts
  serious AEs, discontinuations due to AEs, dose-limiting toxicities: no serious AEs, discontinuations due to AEs, or dose-limiting toxicities
[1]; single oral dose 30-2500 mg
  maximum tolerated dose: not reached
[2]
  highest well-tolerated dose: 360 mg q12h
[3]; pre-clinical studies
  activity of mutated PK-R enzymes: increases the activity
[3]; recombinantly expressed PKR mutants associated with PKD
  protein stability of PKR mutant proteins: enhances the protein stability
[4]; 12 hours following the first dose
  effect on ATP levels after first dose: minimal
[4]; Days 8-14, MAD cohorts 1 and 2
  ATP levels in the blood: substantial increases
[4]; after final dose, MAD cohorts 1 and 2
  2,3-DPG levels: decreases in 2,3-DPG levels
[4]; after the last dose, MAD cohorts 1 and 2
  time ATP levels remained elevated: ≥ 72 h
[4]; in vivo
  dose at which decrease in 2,3-DPG and increase in ATP plateau: 360 mg q12h
[4]; of dosing
  time for 2,3-DPG decrease to reach full extent: ≤ 7 days
  time for ATP increase to reach full extent: ≤ 10 days
[5]; 15-700 mg q12h, 120 mg q24h
  plasma exposure: dose dependent
[5]; MAD cohorts 1 and 2 (120 mg BID, 360 mg BID)
  pharmacokinetic parameter values Day 14 compared with Day 1: lower on Day 14
[6]; both, human, 14 days
  dose at which gastrointestinal AEs occurred: 700 mg q12h
  severity of treatment-related AEs: mild or moderate (only 1 grade 3 event)
  subjects with related headache: 14%
  subjects with related nausea: 14%
  subjects with treatment related ≥1 AEs: 31%
  subjects with ≥1 AE: 44%
[6]
  number of discontinuations: four
[7]; after a single dose, SAD study
  blood ATP levels: minimal increases
[7]; after single dose
  time for 2,3-DPG to return to placebo levels: 72 h
[8]
  glycolytic flux through the PKR reaction: significantly increased
[9]
  drug exposure: dose-proportional increase in exposure
[10]; multiple doses (13 doses, BID), 1, 10, 50, 150 mpk
  ATP levels in whole blood: robustly increased in a dose-dependent manner
[10]; [14]
  2,3-DPG levels in whole blood: reduction in 2,3-DPG levels
  ATP levels in whole blood: no significant changes
[11]
  role of CYP3A4 in metabolism of the compound: major route of the oxidative metabolism
[11]; pre-clinical data
  CYP3A4 induction: moderate inducer
[12]; both sexes, human, plasma, concentrations measured for 72 hours, read-out: mean apparent terminal half-life (t1/2)
  half-life: 17.5 to 20.5 h
[12]; both sexes, human, plasma, concentrations measured for 120 hours, read-out: mean apparent terminal half-life (t1/2)
  half-life: 50 to 80 h
[12]; both sexes, human, plasma, first 12 hours following dosing, read-out: apparent half-life of rapid distribution or elimination phase
  half-life: 2 to 4 h
[12]; both sexes, human, plasma, single oral dose, SAD cohorts, read-out: median Tmax
  Tmax: 0.75 to 4 h
[12]; fed vs fasted, preliminary results
  effect of food on exposure: minimal effect
[12]; single doses, SAD cohorts 1-6
  exposure (mean plasma Cmax, AUC0-12 hr and AUC0-72 hr): increased in a dose-proportional manner
[13]
  2,3-DPG levels: reduced 2,3-DPG levels
  ATP levels: increased ATP levels
  PKR enzyme activity levels: increased PKR enzyme activity levels
